Measurements: US20260274856A1, “COVALENT CEREBLON LIGANDS” (C4 THERAPEUTICS, INC., priority 2023, published 2026)
Where two headings read alike, the source gives them in different places.

Biological target: mutant BRAF V600E (Homo sapiens, UniProt P15056, V600E)
Assay: BRAF V600E HiBiT Degradation Assay in A375.10 cells
Conditions: for HiBIT-Degradation A375.10 BRAF 24 hours IP nM / DC50 / HiBIT-Degradation A375.10 BRAF 2 hours IP nM: A375.10 cells; for HiBIT-Degradation A375.10 BRAF 24 hours IP nM / HiBIT-Degradation A375.10 BRAF 2 hours IP nM: inflection point of the dose-response curve
[1] = read-out: HiBIT-Degradation A375.10 BRAF 24 hours DC50 nM, 24 hours
[2] = read-out: HiBIT-Degradation A375.10 BRAF 24 hours Emax
[3] = read-out: HIBIT-Degradation A375.10 BRAF 2 hours DC50 nM, 2 hours
[4] = read-out: HiBIT-Degradation A375.10 BRAF 2 hours Emax

Chain of mutant BRAF V600E (P15056 whole entry V600E): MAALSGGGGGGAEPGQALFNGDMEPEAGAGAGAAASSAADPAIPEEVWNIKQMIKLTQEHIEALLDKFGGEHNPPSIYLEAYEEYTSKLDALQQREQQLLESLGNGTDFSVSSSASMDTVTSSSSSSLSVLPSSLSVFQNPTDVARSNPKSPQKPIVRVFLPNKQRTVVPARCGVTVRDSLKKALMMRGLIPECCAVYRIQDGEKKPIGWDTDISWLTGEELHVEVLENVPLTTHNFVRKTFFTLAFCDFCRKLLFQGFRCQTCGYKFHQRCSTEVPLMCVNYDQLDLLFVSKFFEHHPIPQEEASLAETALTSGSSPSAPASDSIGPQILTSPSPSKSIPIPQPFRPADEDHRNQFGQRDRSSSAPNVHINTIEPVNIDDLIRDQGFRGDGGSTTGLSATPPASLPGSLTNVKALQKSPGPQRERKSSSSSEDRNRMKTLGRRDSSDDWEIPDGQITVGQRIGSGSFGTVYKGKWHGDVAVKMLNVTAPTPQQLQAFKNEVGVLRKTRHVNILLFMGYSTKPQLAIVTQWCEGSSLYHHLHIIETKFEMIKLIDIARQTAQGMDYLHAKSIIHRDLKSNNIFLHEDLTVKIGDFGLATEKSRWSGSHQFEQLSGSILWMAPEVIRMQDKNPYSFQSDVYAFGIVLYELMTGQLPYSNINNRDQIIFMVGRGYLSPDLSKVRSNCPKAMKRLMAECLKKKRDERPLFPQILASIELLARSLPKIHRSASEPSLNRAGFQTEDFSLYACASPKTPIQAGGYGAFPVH
Protocol: Compounds of this invention were tested for degradation of mutant BRAF V600E using the HiBiT assay, a luminescence-based assay for quantification of cellular protein levels using the Nano-Glo@HiBiT Lytic Detection System (Catalog No. N3050, Promega, Madison, WI USA). This assay utilizes the HiBiT tag on a protein of interest, which creates a luminescent signal in the presence of a complementing peptide and its substrate, the quantification of which 10 is proportional to the amount of HiBiT-tagged protein in the cell.
A375 cells were engineered to express HiBiT tagged BRAF V600E by CRISPR knock-in of the HiBiT tag to the endogenous BRAF V600E locus, followed by selection of a clonal population containing 15 the appropriate knock-in (referred to here as cell line A375.10). […] Cell culture flasks and 384-well microplates 20 were acquired from VWR (Radnor, PA, USA).
Plates were then spun briefly, and cells were incubated with compound at 37° C. for 2 hoursor 24 hours.
Following the appropriate treatment time, Nano-Glo® HiBiT Lytic Assay reagents were added to the cells per the manufacturer's instructions by adding 30ul of reagent per well, and 10 the luminescence signal was acquired by plate reader. Cells treated with DMSO only (no test compound treatment) were used as the negative control (N). Media only (no cells added) with Nano-Glo reagent addition was used as the background or positive control (P). The percent response of compound treated samples were calculated by subtracting out the background signal (P) and normalizing to the DMSO control (N) as follows. % Response=100 x (Treated Signal - Average (P))/(Average (N) - Average (P)).
Data were analyzed with a 4-parameter logistic fit to generate sigmoidal dose-response curves. […] The Emax, or maximum effect of each compound, represents the amount of residual protein remaining in the cell following compound treatment.
The experiment was conducted at least once for each compound. If the experiment was conducted multiple times, the data shown in the table is the average of the two or more experiments.

Compound	HiBIT-Degradation A375.10 BRAF 24 hours IP nM (24 hours)	DC50 [1] [nM]	Emax [2] [%]	HiBIT-Degradation A375.10 BRAF 2 hours IP nM (2 hours)	DC50 [3] [nM]	Emax [4] [%]
CCN(C)S(=O)(=O)Nc1ccc(F)c(Oc2ccc3ncn([C@H]4COC5(CCN(C(=O)CN6CCC(c7ccc(OC8CCC(=O)NC8=O)cc7S(=O)(=O)F)CC6)CC5)C4)c(=O)c3c2)c1C#N (stereo partly drawn) [drawing 1225]	** (<10 μM and >1 μM is **)	> 10000	60 to 95			
CCN(C)S(=O)(=O)Nc1ccc(F)c(Oc2ccc3ncn([C@@H]4COC5(CCN(C(=O)CN6CCC(c7ccc(OC8CCC(=O)NC8=O)cc7S(=O)(=O)F)CC6)CC5)C4)c(=O)c3c2)c1C#N (stereo partly drawn) [drawing 1198]				*** (<= 1 μM is)	1000 to 10000	60 to 95
CCN(C)S(=O)(=O)Nc1ccc(F)c(Oc2ccc3ncn([C@H]4COC5(CCN(C(=O)CN6CCC(c7ccc(OC8CCC(=O)NC8=O)cc7OS(C)(=O)=O)CC6)CC5)C4)c(=O)c3c2)c1C#N (stereo partly drawn) [drawing 1204]				*** (<= 1 μM is)	1000 to 10000	< 60
CCN(C)S(=O)(=O)Nc1ccc(F)c(Oc2ccc3ncn([C@@H]4COC5(CCN(C(=O)CN6CCC(c7ccc(N8CCC(=O)NC8=O)cc7OS(=O)(=O)F)CC6)CC5)C4)c(=O)c3c2)c1C#N [drawing 1227]	** (<10 μM and >1 μM is **)	1000 to 10000	< 60			
CCN(C)S(=O)(=O)Nc1ccc(F)c(Oc2ccc3ncn([C@H]4COC5(CCN(C(=O)CN6CCC(c7ccc(OC8CCC(=O)NC8=O)cc7OS(=O)(=O)F)CC6)CC5)C4)c(=O)c3c2)c1C#N (stereo partly drawn) [drawing 1196]				*** (<= 1 μM is)	1000 to 10000	< 60
CCN(C)S(=O)(=O)Nc1ccc(F)c(Oc2ccc3ncn([C@@H]4COC5(CCN(C(=O)CN6CCC(c7ccc(N8CCC(=O)NC8=O)cc7OS(C)(=O)=O)CC6)CC5)C4)c(=O)c3c2)c1C#N [drawing 1219]	*** (<= 1 μM is ***)	< 1000	< 60			
CCN(C)S(=O)(=O)Nc1ccc(F)c(Oc2ccc3ncn([C@H]4COC5(CCN(C(=O)CN6CCN(c7ccc(C8CCC(=O)NC8=O)cc7OS(=O)(=O)F)CC6)CC5)C4)c(=O)c3c2)c1C#N (stereo partly drawn) [drawing 1212]	*** (<= 1 μM is ***)	< 1000	< 60			
CCN(C)S(=O)(=O)Nc1ccc(F)c(Oc2ccc3ncn([C@@H]4COC5(CCN(C(=O)CN6CCC(c7ccc(C8CCC(=O)NC8=O)cc7OS(C)(=O)=O)CC6)CC5)C4)c(=O)c3c2)c1C#N (stereo partly drawn) [drawing 1223]	*** (<= 1 μM is ***)	< 1000	< 60			
CCN(C)S(=O)(=O)Nc1ccc(F)c(Oc2ccc3ncn([C@@H]4COC5(CCN(C(=O)CN6CCC(c7ccc(C8CCC(=O)NC8=O)cc7OS(=O)(=O)F)CC6)CC5)C4)c(=O)c3c2)c1C#N (stereo partly drawn) [drawing 1189]				*** (<= 1 μM is)	1000 to 10000	60 to 95
CCN(C)S(=O)(=O)Nc1ccc(F)c(Oc2ccc3ncn([C@H]4COC5(CCN(C(=O)CN6CCC(c7ccc(N8CCC(=O)NC8=O)cc7OS(C)(=O)=O)CC6)CC5)C4)c(=O)c3c2)c1C#N [drawing 1220]	*** (<= 1 μM is ***)	< 1000	< 60			
CCN(C)S(=O)(=O)Nc1ccc(F)c(Oc2ccc3ncn([C@H]4COC5(CCN(C(=O)CN6CCC(c7ccc(NC8CCC(=O)NC8=O)cc7OS(C)(=O)=O)CC6)CC5)C4)c(=O)c3c2)c1C#N (stereo partly drawn) [drawing 1202]				*** (<= 1 μM is)	1000 to 10000	< 60
CCN(C)S(=O)(=O)Nc1ccc(F)c(Oc2ccc3ncn([C@H]4COC5(CCN(C(=O)CN6CCC(c7ccc(OC8CCC(=O)NC8=O)cc7S(=O)(=O)F)CC6)CC5)C4)c(=O)c3c2)c1C#N (stereo partly drawn) [drawing 1200]				*** (<= 1 μM is)	1000 to 10000	60 to 95
